The assay addresses Beta-3 Adrenergic Receptor (Homo sapiens (Human), UniProt P13945). In words: Homogeneous Time-Resolved Fluorescence (HTRF) cAMP antagonist assay, IC50 determination. The assay is classed as cell-based. The following applies: CHO-K1 cells stably expressing recombinant receptor, isoproterenol at EC90. The method in brief: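 CHO-K1 cells stably expressing receptor, 1500 cells/well, preincubated briefly with 10-point 5-fold compound series (top final typically 10 or 100 μM) in PBS with 1 mM IBMX, then challenged with isoproterenol at EC90 for 1 h at room temperature. cAMP read by HTRF against on-plate standard curve; IC50 from dose-response.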
Chain of Beta-3 Adrenergic Receptor (P13945 whole entry, species assumed): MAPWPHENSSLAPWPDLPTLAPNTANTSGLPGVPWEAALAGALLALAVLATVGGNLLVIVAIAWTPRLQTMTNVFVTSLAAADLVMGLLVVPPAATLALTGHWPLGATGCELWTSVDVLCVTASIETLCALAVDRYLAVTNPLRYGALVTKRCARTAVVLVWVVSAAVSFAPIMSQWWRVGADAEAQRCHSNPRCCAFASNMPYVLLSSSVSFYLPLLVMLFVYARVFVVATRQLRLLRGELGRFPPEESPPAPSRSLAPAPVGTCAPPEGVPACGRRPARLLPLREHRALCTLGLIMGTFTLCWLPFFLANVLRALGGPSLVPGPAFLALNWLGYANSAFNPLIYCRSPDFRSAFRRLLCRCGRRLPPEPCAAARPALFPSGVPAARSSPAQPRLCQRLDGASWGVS
What is called IC50 is the concentration needed to halve the response being measured. In the case of `CNS(=O)(=O)c1cccc(OC[C@@H](O)CN[C@H]2COC3(CCN(S(=O)(=O)c4cccc(-c5ccc(CN)cc5)c4)CC3)C2)c1` [Compound 289, 3-((S)-3-((R)-8-(4′-(aminomethyl)biphenyl-3-ylsulfonyl)-1-oxa-8-azaspiro[4.5]decan-3-ylamino)-2-hydroxypropoxy)-N-methylbenzenesulfonamide], the IC50 turned out to be 16.5 nM.
For `CN(C)S(=O)(=O)c1cccc(OC[C@@H](O)CNC2COC3(CCN(S(=O)(=O)c4ccc(CN)cc4)CC3)C2)c1` (stereo partly drawn) [Compound 290, 3-((2S)-3-(8-(4-(aminomethyl)phenylsulfonyl)-1-oxa-8-azaspiro[4.5]decan-3-ylamino)-2-hydroxypropoxy)-N,N-dimethylbenzenesulfonamide] the value was 175 nM; for `CNS(=O)(=O)c1cccc(OC[C@@H](O)CN[C@@H]2COC3(CCN(S(=O)(=O)c4cccc(-c5ccc(S(N)(=O)=O)cc5)c4)CC3)C2)c1` [Compound 291, 3′-((S)-3-((S)-2-hydroxy-3-(3-(N-methylsulfamoyl)phenoxy)propylamino)-1-oxa-8-azaspiro[4.5]decan-8-ylsulfonyl)biphenyl-4-sulfonamide], 8.84 nM.
For `CNS(=O)(=O)c1cccc(OC[C@@H](O)CN[C@H]2COC3(CCN(S(=O)(=O)c4cccc(-c5ccc(S(N)(=O)=O)cc5)c4)CC3)C2)c1` [Compound 292, 3′-((R)-3-((S)-2-hydroxy-3-(3-(N-methylsulfamoyl)phenoxy)propylamino)-1-oxa-8-azaspiro[4.5]decan-8-ylsulfonyl)biphenyl-4-sulfonamide] the value was 30.1 nM.
For `CNS(=O)(=O)c1cccc(OC[C@@H](O)CN[C@@H]2COC3(CCN(S(=O)(=O)c4cccc(-c5ccc(CC#N)cc5)c4)CC3)C2)c1` [Compound 293, 3-((S)-3-((S)-8-(4′-(cyanomethyl)biphenyl-3-ylsulfonyl)-1-oxa-8-azaspiro[4.5]decan-3-ylamino)-2-hydroxypropoxy)-N-methylbenzenesulfonamide] the value was 16.2 nM; for `CNS(=O)(=O)c1cccc(OC[C@@H](O)CN[C@H]2COC3(CCN(S(=O)(=O)c4cccc(-c5ccc(CC#N)cc5)c4)CC3)C2)c1` [Compound 294, 3-((S)-3-((R)-8-(4′-(cyanomethyl)biphenyl-3-ylsulfonyl)-1-oxa-8-azaspiro[4.5]decan-3-ylamino)-2-hydroxypropoxy)-N-methylbenzenesulfonamide], 56.2 nM.
Consider `CNS(=O)(=O)c1cccc(OC[C@@H](O)CN[C@@H]2COC3(CCN(S(=O)(=O)c4cccc(-c5cc[nH]n5)c4)CC3)C2)c1` [Compound 295, 3-((S)-3-((S)-8-(3-(1H-pyrazol-3-yl)phenylsulfonyl)-1-oxa-8-azaspiro[4.5]decan-3-ylamino)-2-hydroxypropoxy)-N-methylbenzenesulfonamide], for which the IC50 came to 7.22 nM.
In the case of `CNS(=O)(=O)c1cccc(OC[C@@H](O)CN[C@H]2COC3(CCN(S(=O)(=O)c4cccc(-c5cc[nH]n5)c4)CC3)C2)c1` [Compound 296, 3-((S)-3-((R)-8-(3-(1H-pyrazol-3-yl)phenylsulfonyl)-1-oxa-8-azaspiro[4.5]decan-3-ylamino)-2-hydroxypropoxy)-N-methylbenzenesulfonamide] it was 17.5 nM.
For `CNS(=O)(=O)c1cccc(OC[C@@H](O)CN[C@@H]2COC3(CCN(S(=O)(=O)c4cccc(-c5ccc(OCC#N)cc5)c4)CC3)C2)c1` [Compound 297, 3-((S)-3-((S)-8-(4′-(cyanomethoxy)biphenyl-3-ylsulfonyl)-1-oxa-8-azaspiro[4.5]decan-3-ylamino)-2-hydroxypropoxy)-N-methylbenzenesulfonamide] the value was 15.9 nM.
For `CNS(=O)(=O)c1cccc(OC[C@@H](O)CN[C@H]2COC3(CCN(S(=O)(=O)c4cccc(-c5ccc(OCC#N)cc5)c4)CC3)C2)c1` [Compound 298, 3-((S)-3-((R)-8-(4′-(cyanomethoxy)biphenyl-3-ylsulfonyl)-1-oxa-8-azaspiro[4.5]decan-3-ylamino)-2-hydroxypropoxy)-N-methylbenzenesulfonamide] the value was 26 nM.
With `CNS(=O)(=O)c1cccc(OC[C@@H](O)CN[C@@H]2COC3(CCN(S(=O)(=O)c4ccc5c(c4)N(C)CCO5)CC3)C2)c1` [Compound 299, 3-((S)-2-hydroxy-3-((S)-8-(4-methyl-3,4-dihydro-2H-benzo[b][1,4]oxazin-6-ylsulfonyl)-1-oxa-8-azaspiro[4.5]decan-3-ylamino)propoxy)-N-methylbenzenesulfonamide], the IC50 is 11.8 nM.
Regarding `CNS(=O)(=O)c1cccc(OC[C@@H](O)CN[C@H]2COC3(CCN(S(=O)(=O)c4ccc5c(c4)N(C)CCO5)CC3)C2)c1` [Compound 300, 3-((S)-2-hydroxy-3-((R)-8-(4-methyl-3,4-dihydro-2H-benzo[b][1,4]oxazin-6-ylsulfonyl)-1-oxa-8-azaspiro[4.5]decan-3-ylamino)propoxy)-N-methylbenzenesulfonamide], the IC50 was determined as 10.9 nM.
For `CNCc1ccc(-c2cccc(S(=O)(=O)N3CCC4(CC3)CC(NC[C@H](O)COc3cccc(S(=O)(=O)NC)c3)CO4)c2)cc1` (stereo partly drawn) [Compound 301, 3-((2S)-2-hydroxy-3-(8-(4′-((methylamino)methyl)biphenyl-3-ylsulfonyl)-1-oxa-8-azaspiro[4.5]decan-3-ylamino)propoxy)-N-methylbenzenesulfonamide] the value was 31.6 nM.
In the case of `CCNCc1ccc(-c2cccc(S(=O)(=O)N3CCC4(CC3)CC(NC[C@H](O)COc3cccc(S(=O)(=O)NC)c3)CO4)c2)cc1` (stereo partly drawn) [Compound 302, 3-((2S)-3-(8-(4′-((ethylamino)methyl)biphenyl-3-ylsulfonyl)-1-oxa-8-azaspiro[4.5]decan-3-ylamino)-2-hydroxypropoxy)-N-methylbenzenesulfonamide] it was 458 nM; in that of `CNS(=O)(=O)c1cccc(OC[C@@H](O)CNC2COC3(CCN(S(=O)(=O)c4cccc(-c5ccc(CNC(C)C)cc5)c4)CC3)C2)c1` (stereo partly drawn) [Compound 303, 3-((2S)-2-hydroxy-3-(8-(4′-((isopropylamino)methyl)biphenyl-3-ylsulfonyl)-1-oxa-8-azaspiro[4.5]decan-3-ylamino)propoxy)-N-methylbenzenesulfonamide], 32.6 nM; in that of `CNS(=O)(=O)c1cccc(OC[C@@H](O)CNC2COC3(CCN(S(=O)(=O)c4cccc(-c5ccc(CNCCO)cc5)c4)CC3)C2)c1` (stereo partly drawn) [Compound 304, 3-((2S)-2-hydroxy-3-(8-(4′-((2-hydroxyethylamino)methyl)biphenyl-3-ylsulfonyl)-1-oxa-8-azaspiro[4.5]decan-3-ylamino)propoxy)-N-methylbenzenesulfonamide], 43 nM.
In the case of `CNS(=O)(=O)c1cccc(OC[C@@H](O)CNC2COC3(CCN(S(=O)(=O)c4cccc(-c5ccc(CNCCN(C)C)cc5)c4)CC3)C2)c1` (stereo partly drawn) [Compound 305, 3-((2S)-3-(8-(4′-((2-(dimethylamino)ethylamino)methyl)biphenyl-3-ylsulfonyl)-1-oxa-8-azaspiro[4.5]decan-3-ylamino)-2-hydroxypropoxy)-N-methylbenzenesulfonamide] it was 63.5 nM; in that of `NS(=O)(=O)c1cccc(OC[C@@H](O)CNC2COC3(CCN(S(=O)(=O)c4ccc5ccccc5c4)CC3)C2)c1` (stereo partly drawn) [Compound 306, 3-((2S)-2-hydroxy-3-(8-(naphthalen-2-ylsulfonyl)-1-oxa-8-azaspiro[4.5]decan-3-ylamino)propoxy)benzenesulfonamide], 65.4 nM.
As for `CN(C)CCCNS(=O)(=O)c1cccc(OC[C@@H](O)CNC2COC3(CCN(S(=O)(=O)c4cccc(Cl)c4)CC3)C2)c1` (stereo partly drawn) [Compound 307, 3-((2S)-3-(8-(3-chlorophenylsulfonyl)-1-oxa-8-azaspiro[4.5]decan-3-ylamino)-2-hydroxypropoxy)-N-(3-(dimethylamino)propyl)benzenesulfonamide], the IC50 was found to be 3370 nM.
As for `COc1ccc(S(=O)(=O)N2CCC3(CC2)CC(NC[C@H](O)COc2cccc(S(=O)(=O)NCCCN(C)C)c2)CO3)cc1C` (stereo partly drawn) [Compound 308, N-(3-(dimethylamino)propyl)-3-((2S)-2-hydroxy-3-(8-(4-methoxy-3-methylphenylsulfonyl)-1-oxa-8-azaspiro[4.5]decan-3-ylamino)propoxy)benzenesulfonamide], the IC50 was 1820 nM.
For `Cc1ccc(F)c(S(=O)(=O)N2CCC3(CC2)CC(NC[C@H](O)COc2cccc(S(=O)(=O)NCCCN(C)C)c2)CO3)c1` (stereo partly drawn) [Compound 309, N-(3-(dimethylamino)propyl)-3-((2S)-3-(8-(2-fluoro-5-methylphenylsulfonyl)-1-oxa-8-azaspiro[4.5]decan-3-ylamino)-2-hydroxypropoxy)benzenesulfonamide] the value was 3000 nM.
For `Cc1cc(S(=O)(=O)N2CCC3(CC2)CC(NC[C@H](O)COc2cccc(S(=O)(=O)NCCCN(C)C)c2)CO3)ccc1Br` (stereo partly drawn) [Compound 310, 3-((2S)-3-(8-(4-bromo-3-methylphenylsulfonyl)-1-oxa-8-azaspiro[4.5]decan-3-ylamino)-2-hydroxypropoxy)-N-(3-(dimethylamino)propyl)benzenesulfonamide] the value was 877 nM; for `CN(C)CCCNS(=O)(=O)c1cccc(OC[C@@H](O)CNC2COC3(CCN(S(=O)(=O)c4ccc5c(c4)NC(=O)CO5)CC3)C2)c1` (stereo partly drawn) [Compound 311, N-(3-(dimethylamino)propyl)-3-((2S)-2-hydroxy-3-(8-(3-oxo-3,4-dihydro-2H-benzo[b][1,4]oxazin-6-ylsulfonyl)-1-oxa-8-azaspiro[4.5]decan-3-ylamino)propoxy)benzenesulfonamide], 2000 nM.
In the case of `CN(C)CCCNS(=O)(=O)c1cccc(OC[C@@H](O)CNC2COC3(CCN(S(=O)(=O)c4ccc5nsnc5c4)CC3)C2)c1` (stereo partly drawn) [Compound 312, 3-((2S)-3-(8-(benzo[c][1,2,5]thiadiazol-5-ylsulfonyl)-1-oxa-8-azaspiro[4.5]decan-3-ylamino)-2-hydroxypropoxy)-N-(3-(dimethylamino)propyl)benzenesulfonamide] it was 3170 nM.
